Marks after values point to notes of the source that are not given here.
What was measured:
[1] = system: Cytochrome p450 2C19; details: cited from earlier work
[2] = molecular target: Tyrosyl-DNA phosphodiesterase 1 + camptothecin; set-up: method as in PubChem, 2014a; details: Cell-based (process); ref PubChem, 2014a; cited from earlier work
[3] = molecular target: GPR1 (Homo sapiens, UniProt P46091); test: β-arrestin2 (β-ARR2) assay, GPR1/CHO cells, chemerin-stimulated
[4] = system: MPP8 chromodomain/methylated histones; set-up: method as in PubChem, 2014b; details: Purified protein (binding); ref PubChem, 2014b; cited from earlier work
[5] = system: Cytochrome p450 3A4; details: cited from earlier work
[6] = molecular target: Vitamin D receptor; set-up: method as in PubChem, 2014a; details: Purified protein (binding); ref PubChem, 2014a; cited from earlier work
[7] = molecular target: T1, huCMKLR1 (Homo sapiens, UniProt Q99788); test: Transwell chemotaxis of huCMKLR1/L1.2 transfectants to chemerin
T1 sequence (Q99788 1-373): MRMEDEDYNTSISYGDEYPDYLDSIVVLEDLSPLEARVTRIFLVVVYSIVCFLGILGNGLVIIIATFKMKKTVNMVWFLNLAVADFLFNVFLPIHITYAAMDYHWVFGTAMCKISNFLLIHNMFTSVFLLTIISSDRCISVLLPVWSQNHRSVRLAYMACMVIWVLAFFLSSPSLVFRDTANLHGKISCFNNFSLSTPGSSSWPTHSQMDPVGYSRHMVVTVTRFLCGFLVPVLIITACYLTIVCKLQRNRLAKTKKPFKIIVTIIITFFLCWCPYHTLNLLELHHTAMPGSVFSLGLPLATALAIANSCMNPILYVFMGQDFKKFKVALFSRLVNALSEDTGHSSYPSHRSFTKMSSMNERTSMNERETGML

[8] = system: C57BL/6 mice; test: Histology and flow cytometry of CNS and spleen leukocytes in EAE mice (active immunization)
[9] = system: p53 mutants; set-up: method as in PubChem, 2014a; details: Cell-based (process); ref PubChem, 2014a; cited from earlier work
[10] = molecular target: Aldehyde dehydrogenase 1 family, member A1 (ALDH1A1); set-up: method as in PubChem, 2014b; ref 22; details: Purified enzyme; ref PubChem, 2014b; cited from earlier work
[11] = system: Nuclear factor of activated T cells (NFAT); set-up: method as in PubChem, 2014a; details: Cell-based; ref PubChem, 2014a; cited from earlier work
[12] = molecular target: Cholinesterase; set-up: method as in Sastry et al., 1988a; ref 19; details: Purified enzyme; ref Sastry et al., 1988a; cited from earlier work
[13] = system: CMKLR1 KO mice; test: EAE induced by active immunization in CMKLR1 KO mice; format: in vivo, mouse; details: 10 mg/kg daily s.c.
[14] = molecular target: CXCR4 (Homo sapiens, UniProt P61073); test: Transwell chemotaxis of CXCR4+ U937 cells to CXCL12
[15] = system: DNA re-replication; set-up: method as in PubChem, 2014b; details: Cell-based (process); ref PubChem, 2014b; read-out: Agonist activity, EC50 (µM), DNA re-replication; cited from earlier work
[16] = system: Acetylcholine muscarinic M1 receptor; set-up: method as in PubChem, 2014a; ref 25; details: Cell-based (GPCR); Tested up to 35 µM; ref PubChem, 2014a; cited from earlier work
[17] = system: Cytochrome p450 2D6; details: cited from earlier work
[18] = system: Thrombopoietin; set-up: method as in PubChem, 2014a; details: Cell-based; ref PubChem, 2014a; cited from earlier work
[19] = system: C57BL/6 mice; test: EAE induced by active immunization with MOG35-55/CFA in C57BL/6 mice; format: in vivo, mouse
[20] = system: Bacillus anthracis lethal toxin; details: Cell-based (process); ref PubChem, 2014a; cited from earlier work

CXCR4, sequence (P61073 whole entry): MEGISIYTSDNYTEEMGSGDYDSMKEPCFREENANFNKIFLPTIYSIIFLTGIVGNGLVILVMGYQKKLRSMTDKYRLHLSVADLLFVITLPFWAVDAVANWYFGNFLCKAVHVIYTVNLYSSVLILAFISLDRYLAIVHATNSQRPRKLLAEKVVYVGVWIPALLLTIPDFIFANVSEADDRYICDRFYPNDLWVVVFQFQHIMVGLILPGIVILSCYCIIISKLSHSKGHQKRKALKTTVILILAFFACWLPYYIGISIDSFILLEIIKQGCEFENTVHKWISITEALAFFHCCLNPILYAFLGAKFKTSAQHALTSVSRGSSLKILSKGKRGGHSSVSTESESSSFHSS
GPR1, sequence (P46091 whole entry, species assumed): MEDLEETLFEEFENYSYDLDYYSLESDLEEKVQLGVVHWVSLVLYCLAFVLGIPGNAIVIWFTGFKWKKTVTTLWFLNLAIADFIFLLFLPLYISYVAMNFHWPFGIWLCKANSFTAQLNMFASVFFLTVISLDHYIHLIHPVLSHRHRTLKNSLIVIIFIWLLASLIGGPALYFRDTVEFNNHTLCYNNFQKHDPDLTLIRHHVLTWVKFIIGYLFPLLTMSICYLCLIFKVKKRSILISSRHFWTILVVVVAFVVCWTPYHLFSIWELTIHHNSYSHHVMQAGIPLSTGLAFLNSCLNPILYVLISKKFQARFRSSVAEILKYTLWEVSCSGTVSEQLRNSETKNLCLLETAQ

C[N+](C)(C)CCC(=O)c1cccc2ccccc12.[I-] [α-NETA, 2-(α-naphthoyl)ethyltrimethylammonium iodide]
IC50 [1]: ≥ 10 µM | IC50 (µM), Cytochrome p450 2C19 [1]: Inactive ^j | IC50 [2]: 0.58 µM | IC50 [3]: 3.4 µM | fold less potent against GPR1 compared to activity against CMKLR1 ([3]; β-arrestin2 assay): 10 fold | IC50 [4]: 10 µM | IC50 [5]: 0.2 µM | IC50 [6]: 2 µM | IC50 [7]: 6.5 ± 0.7 µM | total cells in the spleen ([8]; 16 days p.i., did not reach statistical significance): more total cells in the spleen | total cells in the CNS ([8]; 16 days p.i., p<0.05): fewer total cells in the CNS | total numbers of splenic NK cells ([8]; EAE mice, not shown): did not induce detectable changes | numbers of CNS lesions ([8]; chronic EAE, day 37 p.i., data not shown): no differences in numbers of CNS lesions | leukocyte accumulation within the CNS (T cells, B cells, dendritic cells, macrophages) ([8]; day 16 p.i., no apparent preferential or selective effect on subsets): suppressed leukocyte accumulation | meningeal and parenchymal CNS inflammatory foci ([8]; peak acute EAE, day 16 p.i.): fewer meningeal and parenchymal CNS inflammatory foci | % of NK cells (CD3-NK1.1+) in lymphocyte scatter gate ([8]; spleen, day 16 post-EAE induction, n = 5 mice per group): 0.8 (0.1) ^* % | IC50 [9]: 13 µM | IC50 [10]: 0.04 µM | IC50 [11]: 1.3 µM | IC50 [12]: 84 µM | disease incidence by day 20 ([13]; not statistically significant): 40% | Mean day of onset (SEM) ([13]; only animals that developed EAE, not significant (p = 0.18)): 14.3 (1.5) ^ns | IC50 [14]: ≥ 10 µM | inhibition of migration of CXCR4+ cells to CXCL12 ([14]; 1, 3, and 10 µM): did not inhibit | EC50 [15]: 1.8 µM | IC50 (µM), Acetylcholine muscarinic M1 receptor [16]: Inactive ^k | IC50 [17]: ≥ 10 µM | IC50 [18]: 2.5 µM | mice that did not develop clinical EAE by day 27 ([19]; 10 mg/kg daily s.c.): ~30% | suppression of clinical signs beyond first appearance of disease in control mice ([19]; 10 mg/kg daily s.c.): completely suppressed clinical signs for an average of nine days | severity of clinical disease ([19]; 10 mg/kg daily s.c., through day 25): significantly reduced | onset of EAE ([19]; doses as low as 3 mg/kg daily s.c., not shown): significantly delayed the onset of EAE | effect on ongoing clinical EAE ([19]; treatment initiated upon onset of clinical signs, data not shown): failed to reverse ongoing clinical EAE | IC50 [20]: 25 µM
